Assay results from US20260327216A1, “SUBSTITUTED OXAZOLONE COMPOUND FOR DECREASING LEVELS OF IKZF I-4 PROTEINS” (BRISTOL-MYERS SQUIBB COMPANY, priority 2023, published 2026).

What was measured:
Format in all cases: cell-based
IKZF2 Helios = IKZF2 Helios (Homo sapiens, UniProt Q96SW2+Q9UKS7); test: Human Regulatory T Cell Degradation Assay, IKZF2; parameters: endogenous in cells; host or cells: FACS-sorted human CD4+CD127lowCD25+ Treg cells from healthy leukopaks; conditions: human regulatory T cells, 20 hours; for Dmax: Regulatory T cell, 100% = complete degradation, read-out: IKZF2 Helios max % deg. observed
Chain of IKZF2 Helios (Q9UKS7 whole entry): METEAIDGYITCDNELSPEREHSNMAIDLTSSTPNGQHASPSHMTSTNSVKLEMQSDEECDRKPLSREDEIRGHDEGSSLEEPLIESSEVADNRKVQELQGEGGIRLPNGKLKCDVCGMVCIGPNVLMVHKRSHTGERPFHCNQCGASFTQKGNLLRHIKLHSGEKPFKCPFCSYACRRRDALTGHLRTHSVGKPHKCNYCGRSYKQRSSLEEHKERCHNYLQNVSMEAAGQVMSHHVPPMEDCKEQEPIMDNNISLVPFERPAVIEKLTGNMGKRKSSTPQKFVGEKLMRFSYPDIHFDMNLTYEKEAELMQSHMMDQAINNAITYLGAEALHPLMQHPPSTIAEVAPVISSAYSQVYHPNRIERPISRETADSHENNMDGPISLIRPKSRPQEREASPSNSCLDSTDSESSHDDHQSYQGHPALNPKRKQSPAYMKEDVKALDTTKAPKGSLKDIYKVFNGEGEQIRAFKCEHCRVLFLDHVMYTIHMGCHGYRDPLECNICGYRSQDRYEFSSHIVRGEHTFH
Chain of IKZF2 Helios (Q96SW2 whole entry): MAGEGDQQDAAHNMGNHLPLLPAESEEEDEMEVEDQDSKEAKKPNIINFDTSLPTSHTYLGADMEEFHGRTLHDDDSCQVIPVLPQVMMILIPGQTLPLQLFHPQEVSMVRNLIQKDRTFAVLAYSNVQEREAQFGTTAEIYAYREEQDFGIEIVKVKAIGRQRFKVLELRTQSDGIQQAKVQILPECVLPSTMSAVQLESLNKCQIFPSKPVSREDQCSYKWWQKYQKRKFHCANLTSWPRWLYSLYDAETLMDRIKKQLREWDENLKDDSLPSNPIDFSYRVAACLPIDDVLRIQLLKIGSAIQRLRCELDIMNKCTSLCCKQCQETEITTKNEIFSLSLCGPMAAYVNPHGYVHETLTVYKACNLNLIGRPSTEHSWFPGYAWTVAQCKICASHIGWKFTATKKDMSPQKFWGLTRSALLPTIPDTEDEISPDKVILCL
Chain of IKZF2 Helios (Q16531 whole entry partner): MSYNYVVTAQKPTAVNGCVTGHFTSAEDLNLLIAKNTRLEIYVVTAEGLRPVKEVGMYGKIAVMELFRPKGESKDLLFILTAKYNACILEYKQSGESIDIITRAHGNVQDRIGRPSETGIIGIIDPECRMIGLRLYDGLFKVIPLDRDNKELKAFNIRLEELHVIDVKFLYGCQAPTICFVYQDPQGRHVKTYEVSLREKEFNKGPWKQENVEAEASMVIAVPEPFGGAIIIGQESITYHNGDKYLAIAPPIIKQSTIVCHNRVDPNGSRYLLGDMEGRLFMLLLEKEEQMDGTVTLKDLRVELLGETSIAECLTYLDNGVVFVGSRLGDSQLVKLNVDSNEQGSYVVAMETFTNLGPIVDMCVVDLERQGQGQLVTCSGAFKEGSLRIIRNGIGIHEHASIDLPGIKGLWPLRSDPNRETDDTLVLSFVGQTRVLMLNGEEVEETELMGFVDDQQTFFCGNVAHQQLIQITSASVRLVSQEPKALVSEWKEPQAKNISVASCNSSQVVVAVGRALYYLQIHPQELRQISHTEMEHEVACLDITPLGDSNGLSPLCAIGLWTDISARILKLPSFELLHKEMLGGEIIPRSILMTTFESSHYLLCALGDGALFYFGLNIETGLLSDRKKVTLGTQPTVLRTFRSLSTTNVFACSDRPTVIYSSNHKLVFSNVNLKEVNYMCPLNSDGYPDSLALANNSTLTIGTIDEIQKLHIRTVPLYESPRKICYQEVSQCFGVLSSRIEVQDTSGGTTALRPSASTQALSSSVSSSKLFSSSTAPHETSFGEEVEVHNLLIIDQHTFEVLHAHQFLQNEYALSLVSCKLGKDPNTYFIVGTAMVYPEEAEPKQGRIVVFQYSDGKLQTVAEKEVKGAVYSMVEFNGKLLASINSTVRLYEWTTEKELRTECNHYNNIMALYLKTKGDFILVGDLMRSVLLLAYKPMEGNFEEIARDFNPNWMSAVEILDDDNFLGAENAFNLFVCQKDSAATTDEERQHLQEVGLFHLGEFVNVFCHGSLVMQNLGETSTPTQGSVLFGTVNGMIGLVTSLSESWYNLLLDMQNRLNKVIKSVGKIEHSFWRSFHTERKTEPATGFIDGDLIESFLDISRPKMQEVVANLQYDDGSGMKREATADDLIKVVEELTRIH
Method: (§1) Cryopreserved human regulatory T cells were thawed in RPMI+10% FBS+20 ng/mL IL-2. After being spun at 1200 rpm for 5 mins, the cells were resuspended in RPMI+10% FBS+20 ng/mL and rested at 37° C. with 5% CO2 for 3 hours. The cells were then plated at 40,000 cells/well in 40 μL RPMI+10% FBS+20 ng/ml human IL-2 in a 384 well cell culture plate prior to using acoustic dispensing technology (ECHO 555) for adding compounds of interest. Cell cultures were incubated for 20 hours at 37° C. and 5% CO2. In order to facilitate analysis, cell cultures were spun down at 1200 rpm for 5 minutes and the supernatant was discarded using an EL406 plate washer. After washing three times with 70 μL PBS, cell pellets were resuspended in 50 μL of near IR viability staining solution (Life Technologies, Cat #L34975) and incubated for 30 minutes on ice protected from light. Cells were washed three times with 70 μL PBS+0.5% BSA using an EL406 plate washer. After shaking the plate to dislodge the cell pellet, cells were resuspended in 50 μL of Fixation Buffer (eBioScience FoxP3 buffer set 00-5523-00) for 60 minutes at room temperature. After centrifuging and discarding the supernatant, cells were permeabilized with 50 μL of permeabilization buffer (eBioScience FoxP3 buffer set 00-5523-00) for 10 minutes at room temperature. Following permeabilization, cells were spun down and the supernatant was replaced with 30 μL fluorescently labelled antibodies against the intracellular targets Helios (Helios-APC [BioLegend, Cat #137222, 1:50])]), Aiolos, and Ikaros 1× Permeabilization buffer and staining reactions were incubated for 1 bour at room temperature; protected from light. Subsequently, 30 μL of 1× Permeabilization buffer was added prior to centrifuging the cells and discarding the supernatant. Stained cells were resuspended in 30 μL of flow cytometry staining buffer (PBS+0.5% BSA) and analyzed using an Intellicyt Ique Plus flow cytometer.
(§2) Table B-1 lists the maximum observed degradation of the IKZF1 protein and IKZF2 protein as measured in the Human Regulatory T Cell Degradation assay. The results in Table B-1 were rounded to two digits. In the Human Regulatory T Cell Degradation assay, a value of 100% indicated no detectable protein remaining or complete degradation of the protein; and a value of 0% indicated no detectable degradation of the protein by the test compound.

IKZF1 Ikaros [1] = target: T1, IKZF1 Ikaros (Homo sapiens, UniProt Q13422+Q96SW2); test: Human Regulatory T Cell Degradation Assay, IKZF1; parameters: Cryopreserved healthy donor human peripheral blood mononuclear cells (PBMC); endogenous in cells; host or cells: human PBMC from healthy donors (CD8+ T cells by flow cytometry); conditions: human regulatory T cells, 20 hours; for Dmax: Regulatory T cell, 100% = complete degradation, read-out: IKZF1 Ikaros max % deg. observed; for DC50: concentration reducing protein level by 50% vs DMSO
T1 sequence (Q13422 whole entry): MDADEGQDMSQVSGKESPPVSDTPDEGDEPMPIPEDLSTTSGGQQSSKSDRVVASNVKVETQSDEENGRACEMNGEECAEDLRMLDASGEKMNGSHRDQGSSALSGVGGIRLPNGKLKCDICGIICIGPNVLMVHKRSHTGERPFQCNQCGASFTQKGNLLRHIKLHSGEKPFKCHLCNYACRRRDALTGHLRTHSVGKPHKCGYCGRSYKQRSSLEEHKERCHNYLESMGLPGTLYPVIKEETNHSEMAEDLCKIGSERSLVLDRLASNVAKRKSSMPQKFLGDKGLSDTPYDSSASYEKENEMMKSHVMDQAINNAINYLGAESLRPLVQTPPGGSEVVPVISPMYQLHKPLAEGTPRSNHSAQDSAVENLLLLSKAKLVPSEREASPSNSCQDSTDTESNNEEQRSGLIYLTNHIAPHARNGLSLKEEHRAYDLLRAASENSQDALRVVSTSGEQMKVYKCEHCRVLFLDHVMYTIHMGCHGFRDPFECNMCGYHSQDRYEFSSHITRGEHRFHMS
T1 sequence (Q96SW2 whole entry): as the sequence (Q96SW2 whole entry) above
T1 sequence (Q16531 whole entry partner): as the sequence (Q16531 whole entry partner) above
Method: as §1, §2

IKZF1 Ikaros [2] = target: T1, IKZF1 Ikaros; test: Jurkat Cellular Degradation Assay, IKZF1; parameters: endogenous in cells; conditions: Jurkat cells, 72 h; for Dmax: human, 100% = complete degradation, 0% = no detectable degradation, read-out: IKZF1 Ikaros max % deg. observed
Method: Jurkat cells were plated at 80,000 cells/well in 40 μL RPMI+10% FBS in a 384-well cell culture plate prior to using acoustic dispensing technology for adding a compound of interest. Cell cultures were incubated for 72 h at 37° C. and 5% CO2. In order to facilitate analysis, cell cultures were spun down at 200 rpm for 5 min and the supernatant was discarded. After shaking the plate to dislodge the cell pellet, cells were resuspended in 50 μL of Fixation Buffer (eBioscience FoxP3 buffer set 00-5523-00) for 60 min at room temperature. After centrifuging and discarding the supernatant, cells were permeabilized with 50 μL of Permeabilization buffer (eBioscience FoxP3 buffer set 00-5523-00) for 10 min at room temperature. Following permeabilization, cells were spun down and the supernatant was replaced with 20 μL fluorescently labelled antibodies against Helios, Ikaros and Aiolos or corresponding Isotype controls in 1× Permeabilization buffer (Ikaros-Alexa488 [Biolegend, Cat #368408, 1:50], Helios-PE [CST, Cat #29360, 1:50], Aiolos-Alexa647 [Biolegend, Cat #371106 Biolegend, 1:25]) and staining reactions were incubated for 1 h at room temperature while protected from light. Subsequently, 30 μL of 1× Permeabilization buffer was added prior to centrifuging the cells and discarding the supernatant. Stained cells were resuspended in 25 μL of flow cytometry staining buffer [PBS+0.2% bovine serum albumin (BSA)] and analyzed using an Intellicyt Ique Plus flow cytometer.
as §2, with “Table A-1” for “Table B-1”, “IKZF1 protein, IKZF2 protein,” for “IKZF1 protein”, “and IKZF3” for “and IKZF2”, “the Jurkat Cellular” for “the Human Regulatory T Cell”

[3] = concentration reducing protein level by 50% vs DMSO

| SMILES | Dmax (IKZF2 Helios) [%] | Dmax (IKZF1 Ikaros [1]) [%] | Dmax (IKZF1 Ikaros [2]) [%] | DC50 (IKZF1 Ikaros [1]) [nM] | DC50 (IKZF2 Helios; [3]) [nM] | DC50 (IKZF1 Ikaros [2]; [3]) [nM] |
| --- | --- | --- | --- | --- | --- | --- |
| O=C1CCC(n2cc(-c3ccc(Br)cc3F)oc2=O)C(=O)N1 (stereo not shown) [Comparative Compound B, 3-(5-(4-bromo-2-fluorophenyl)-2-oxooxazol-3(2H)-yl)piperidine-2,6-dione] | 25 | 47 | 17 | – | – | – |
| O=C1CCC(n2cc(-c3ccccc3)oc2=O)C(=O)N1 (stereo not shown) [Comparative Compound A, 3-(2-oxo-5-phenyloxazol-3(2H)-yl)piperidine-2,6-dione] | 57 | 24 | 57 | > 10000 | – | – |
| Cc1cc(-c2ccc(-c3cn(C4CCC(=O)NC4=O)c(=O)o3)c(F)c2)nc(N)c1OC(F)F (stereo not shown) [Example 1, 3-(5-(4-(6-Amino-5-(difluoromethoxy)-4-methylpyridin-2-yl)-2-fluorophenyl)-2-oxooxazol-3(2H)-yl)piperidine-2,6-dione] | 90 | 46 | 70 | > 10000 | 0.68 | 749 |
